# pIC50, pKi: −log10 of the molar value. Where “and” joins values, the source holds several entries; their conditions need not be identical. Identical values can stand only once. No end group written: not given here.
# How the values were obtained:
# tyrosine hydroxylase = target: T1, tyrosine hydroxylase (Rattus norvegicus, UniProt P04177); assay: enzyme assay; type: biochemical
# T1 construct: rat striatum; from tissue; host or cells: rat striatum
# GABA transaminase = target: T2, GABA transaminase (Rattus norvegicus, UniProt P50554); assay: enzyme assay; type: biochemical
# T2 construct: rat brain; from tissue; host or cells: rat brain
# T2 sequence (P50554 28-500): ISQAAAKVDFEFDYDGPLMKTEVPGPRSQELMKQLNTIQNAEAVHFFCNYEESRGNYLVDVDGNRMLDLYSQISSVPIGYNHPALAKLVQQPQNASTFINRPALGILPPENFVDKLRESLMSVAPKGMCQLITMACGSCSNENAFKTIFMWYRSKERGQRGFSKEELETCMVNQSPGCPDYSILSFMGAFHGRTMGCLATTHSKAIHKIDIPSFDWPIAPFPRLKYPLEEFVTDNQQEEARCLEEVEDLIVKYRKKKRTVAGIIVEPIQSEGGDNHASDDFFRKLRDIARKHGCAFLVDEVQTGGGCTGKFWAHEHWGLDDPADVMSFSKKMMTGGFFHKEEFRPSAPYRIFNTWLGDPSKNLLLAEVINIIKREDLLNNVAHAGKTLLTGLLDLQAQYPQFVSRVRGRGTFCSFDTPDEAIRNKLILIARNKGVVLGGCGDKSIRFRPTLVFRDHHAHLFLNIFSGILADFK
# A3 (h) = target: T3, A3 (h) (Homo sapiens, UniProt P0DMS8); type: binding
# T3 construct: host or cells: HEK-293 cells
# T3 sequence (P0DMS8 1-318): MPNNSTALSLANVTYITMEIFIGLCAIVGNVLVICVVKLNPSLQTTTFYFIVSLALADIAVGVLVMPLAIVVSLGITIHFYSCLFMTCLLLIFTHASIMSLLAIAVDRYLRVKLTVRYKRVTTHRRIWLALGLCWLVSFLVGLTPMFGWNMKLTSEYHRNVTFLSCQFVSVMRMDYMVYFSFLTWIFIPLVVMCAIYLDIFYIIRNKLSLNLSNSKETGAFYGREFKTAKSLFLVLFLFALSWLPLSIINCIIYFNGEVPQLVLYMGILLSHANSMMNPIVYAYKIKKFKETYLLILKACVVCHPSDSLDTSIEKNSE
# BLT1 (LTB4) (h) = target: T4, BLT1 (LTB4) (h) (Homo sapiens, UniProt Q15722); type: binding
# T4 construct: host or cells: CHO cells
# T4 sequence (Q15722 whole entry): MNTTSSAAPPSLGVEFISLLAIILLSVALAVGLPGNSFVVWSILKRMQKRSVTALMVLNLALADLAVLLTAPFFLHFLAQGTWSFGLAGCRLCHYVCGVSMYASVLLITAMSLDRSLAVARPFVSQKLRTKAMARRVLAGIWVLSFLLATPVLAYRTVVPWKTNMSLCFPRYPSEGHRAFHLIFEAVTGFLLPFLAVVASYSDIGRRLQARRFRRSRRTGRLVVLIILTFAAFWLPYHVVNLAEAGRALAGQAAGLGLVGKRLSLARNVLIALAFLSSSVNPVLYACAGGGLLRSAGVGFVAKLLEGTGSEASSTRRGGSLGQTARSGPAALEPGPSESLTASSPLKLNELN
# β1 (h) = target: T5, β1 (h) (Homo sapiens, UniProt P08588); type: binding
# T5 construct: host or cells: HEK-293 cells
# T5 sequence (P08588 whole entry): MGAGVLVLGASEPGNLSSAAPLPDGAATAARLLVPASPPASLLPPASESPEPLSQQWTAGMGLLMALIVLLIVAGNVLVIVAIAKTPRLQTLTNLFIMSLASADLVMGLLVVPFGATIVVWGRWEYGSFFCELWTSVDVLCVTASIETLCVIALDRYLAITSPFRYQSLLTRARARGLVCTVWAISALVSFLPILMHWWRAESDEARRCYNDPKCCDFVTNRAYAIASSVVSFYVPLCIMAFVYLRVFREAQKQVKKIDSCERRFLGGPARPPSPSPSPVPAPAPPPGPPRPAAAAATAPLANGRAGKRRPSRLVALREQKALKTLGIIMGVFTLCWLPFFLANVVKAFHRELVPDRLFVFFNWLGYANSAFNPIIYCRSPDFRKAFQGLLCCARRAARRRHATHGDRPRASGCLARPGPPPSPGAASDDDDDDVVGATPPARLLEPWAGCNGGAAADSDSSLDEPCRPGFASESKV
# H2 (h) = target: T6, H2 (h) (Homo sapiens, UniProt P25021); type: binding
# T6 construct: host or cells: CHO cells
# T6 sequence (P25021 whole entry): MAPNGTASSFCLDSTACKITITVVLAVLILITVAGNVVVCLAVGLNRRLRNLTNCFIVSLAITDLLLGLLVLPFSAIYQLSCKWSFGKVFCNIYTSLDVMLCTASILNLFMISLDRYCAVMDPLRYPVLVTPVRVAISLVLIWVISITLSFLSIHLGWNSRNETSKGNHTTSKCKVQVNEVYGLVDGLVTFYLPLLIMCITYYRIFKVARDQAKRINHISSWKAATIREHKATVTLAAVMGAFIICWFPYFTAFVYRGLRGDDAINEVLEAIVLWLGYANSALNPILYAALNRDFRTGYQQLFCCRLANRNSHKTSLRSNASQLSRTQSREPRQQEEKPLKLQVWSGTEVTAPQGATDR
# α2C (h) = target: T7, α2C (h) (Homo sapiens, UniProt P18825); type: binding
# T7 construct: host or cells: CHO cells
# T7 sequence (P18825 1-462): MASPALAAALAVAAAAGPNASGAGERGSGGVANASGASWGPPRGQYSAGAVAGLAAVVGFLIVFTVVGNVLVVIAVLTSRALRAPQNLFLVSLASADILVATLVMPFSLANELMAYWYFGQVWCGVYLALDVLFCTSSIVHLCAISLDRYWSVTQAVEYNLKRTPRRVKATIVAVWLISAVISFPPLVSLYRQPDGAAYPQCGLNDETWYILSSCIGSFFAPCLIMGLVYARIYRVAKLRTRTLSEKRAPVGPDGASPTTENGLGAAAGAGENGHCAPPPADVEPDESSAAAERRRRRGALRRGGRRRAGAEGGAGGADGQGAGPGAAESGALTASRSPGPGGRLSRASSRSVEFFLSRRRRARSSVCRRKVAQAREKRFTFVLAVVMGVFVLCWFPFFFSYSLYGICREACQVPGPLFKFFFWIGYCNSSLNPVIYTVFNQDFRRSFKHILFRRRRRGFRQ
# MT3 (ML2) = target: T8, MT3 (ML2) (Mesocricetus auratus, UniProt A0ABM2YAB8); type: binding, hamster
# T8 construct: tissue Cerep; host or cells: hamster brain
# T8 sequence (A0ABM2YAB8 1-231): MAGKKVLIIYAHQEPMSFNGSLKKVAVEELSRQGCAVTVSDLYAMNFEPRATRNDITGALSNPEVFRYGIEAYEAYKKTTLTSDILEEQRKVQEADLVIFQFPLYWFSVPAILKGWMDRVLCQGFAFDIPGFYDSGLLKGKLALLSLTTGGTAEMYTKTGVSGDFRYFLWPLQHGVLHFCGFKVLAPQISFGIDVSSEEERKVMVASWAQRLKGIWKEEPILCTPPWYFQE
# MT1 (ML1A) (h) = target: T9, MT1 (ML1A) (h) (Homo sapiens, UniProt P48039); type: binding
# T9 construct: host or cells: CHO cells
# T9 sequence (P48039 whole entry): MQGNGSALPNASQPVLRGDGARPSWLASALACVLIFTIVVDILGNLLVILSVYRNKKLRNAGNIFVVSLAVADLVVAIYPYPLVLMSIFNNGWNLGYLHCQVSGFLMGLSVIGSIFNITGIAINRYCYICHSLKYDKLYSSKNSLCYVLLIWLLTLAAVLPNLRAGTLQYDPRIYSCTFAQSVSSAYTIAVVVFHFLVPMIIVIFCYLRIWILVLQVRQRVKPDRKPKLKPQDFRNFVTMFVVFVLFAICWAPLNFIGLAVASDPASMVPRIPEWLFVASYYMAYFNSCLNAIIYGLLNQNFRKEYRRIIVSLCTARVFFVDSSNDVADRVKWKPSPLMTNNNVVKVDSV
# AR (h) = target: T10, AR (h) (Homo sapiens, UniProt P10275, T878A); type: binding
# T10 construct: AR (h) LNCaP cells [3H]methyltrienolone; host or cells: LNCaP cells (cytosol)
# T10 sequence (P10275 1-920 T878A): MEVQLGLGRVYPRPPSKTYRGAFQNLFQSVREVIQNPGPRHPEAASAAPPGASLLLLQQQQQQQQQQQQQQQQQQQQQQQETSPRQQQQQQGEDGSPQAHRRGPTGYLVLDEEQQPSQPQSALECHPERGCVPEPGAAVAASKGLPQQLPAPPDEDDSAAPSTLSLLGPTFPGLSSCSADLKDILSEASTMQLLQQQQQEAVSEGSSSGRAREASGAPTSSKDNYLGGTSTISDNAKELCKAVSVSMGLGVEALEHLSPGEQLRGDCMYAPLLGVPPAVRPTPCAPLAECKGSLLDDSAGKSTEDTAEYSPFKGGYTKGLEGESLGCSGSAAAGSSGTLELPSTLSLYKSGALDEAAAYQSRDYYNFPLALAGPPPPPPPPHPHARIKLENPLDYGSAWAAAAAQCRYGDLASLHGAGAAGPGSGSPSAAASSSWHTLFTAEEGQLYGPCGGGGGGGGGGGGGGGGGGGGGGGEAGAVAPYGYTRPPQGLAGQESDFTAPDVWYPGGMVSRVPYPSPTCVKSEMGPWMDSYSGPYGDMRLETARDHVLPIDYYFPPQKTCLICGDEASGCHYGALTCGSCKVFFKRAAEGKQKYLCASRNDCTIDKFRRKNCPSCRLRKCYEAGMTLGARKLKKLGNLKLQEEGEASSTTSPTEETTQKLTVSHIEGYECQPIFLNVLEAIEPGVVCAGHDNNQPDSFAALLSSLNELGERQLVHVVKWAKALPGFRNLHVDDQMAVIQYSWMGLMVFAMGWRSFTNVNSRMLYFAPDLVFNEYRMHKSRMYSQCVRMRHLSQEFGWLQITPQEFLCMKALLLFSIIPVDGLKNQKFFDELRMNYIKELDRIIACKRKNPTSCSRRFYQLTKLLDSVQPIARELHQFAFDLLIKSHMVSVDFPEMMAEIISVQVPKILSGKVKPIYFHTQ
# α2A (h) = target: T11, α2A (h) (Homo sapiens, UniProt P08913); type: binding
# T11 construct: host or cells: CHO cells
# T11 sequence (P08913 1-465): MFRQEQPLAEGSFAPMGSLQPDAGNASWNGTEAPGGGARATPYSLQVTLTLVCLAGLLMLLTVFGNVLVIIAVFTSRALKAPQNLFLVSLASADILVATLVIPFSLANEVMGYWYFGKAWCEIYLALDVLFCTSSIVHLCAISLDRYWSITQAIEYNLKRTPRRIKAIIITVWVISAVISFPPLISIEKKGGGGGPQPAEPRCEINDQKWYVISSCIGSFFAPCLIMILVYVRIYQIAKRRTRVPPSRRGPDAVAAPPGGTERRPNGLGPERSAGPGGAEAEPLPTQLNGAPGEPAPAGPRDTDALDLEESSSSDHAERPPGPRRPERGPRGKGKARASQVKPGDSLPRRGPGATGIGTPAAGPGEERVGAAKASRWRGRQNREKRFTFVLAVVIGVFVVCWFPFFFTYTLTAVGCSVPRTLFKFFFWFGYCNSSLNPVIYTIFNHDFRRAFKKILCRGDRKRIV
# PDE6 (non-selective) = target: T12, PDE6 (non-selective) (Bos taurus, UniProt P11541+P23439); assay: enzyme assay; type: biochemical, bovine
# T12 construct: PDE6 bovine [3H]cGMP; tissue Cerep (contract assay); host or cells: bovine retina
# T12 sequence (P11541 2-856 limits assumed): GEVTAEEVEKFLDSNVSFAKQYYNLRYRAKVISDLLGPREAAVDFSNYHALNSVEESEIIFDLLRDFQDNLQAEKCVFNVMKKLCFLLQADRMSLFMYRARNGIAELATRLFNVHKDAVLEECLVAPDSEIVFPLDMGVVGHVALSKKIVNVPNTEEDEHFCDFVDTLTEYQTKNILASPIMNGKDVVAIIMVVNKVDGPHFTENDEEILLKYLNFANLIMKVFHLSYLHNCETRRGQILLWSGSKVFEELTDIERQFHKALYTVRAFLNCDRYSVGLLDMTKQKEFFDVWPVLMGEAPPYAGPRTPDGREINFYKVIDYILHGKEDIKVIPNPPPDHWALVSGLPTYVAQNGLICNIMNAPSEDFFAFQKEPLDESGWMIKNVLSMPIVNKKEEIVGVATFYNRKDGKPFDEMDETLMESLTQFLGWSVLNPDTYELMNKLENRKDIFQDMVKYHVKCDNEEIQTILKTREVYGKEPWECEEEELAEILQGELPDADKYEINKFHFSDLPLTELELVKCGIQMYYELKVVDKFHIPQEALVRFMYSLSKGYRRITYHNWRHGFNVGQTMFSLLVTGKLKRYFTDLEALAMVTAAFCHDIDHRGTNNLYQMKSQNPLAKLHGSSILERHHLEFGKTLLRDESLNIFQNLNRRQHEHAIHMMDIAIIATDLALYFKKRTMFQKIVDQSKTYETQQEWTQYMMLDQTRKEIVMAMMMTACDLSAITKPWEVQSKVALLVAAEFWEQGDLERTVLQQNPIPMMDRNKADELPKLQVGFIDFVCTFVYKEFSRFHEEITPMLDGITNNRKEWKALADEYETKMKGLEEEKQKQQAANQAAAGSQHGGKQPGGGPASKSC
# T12 sequence (P23439 2-850 limits assumed): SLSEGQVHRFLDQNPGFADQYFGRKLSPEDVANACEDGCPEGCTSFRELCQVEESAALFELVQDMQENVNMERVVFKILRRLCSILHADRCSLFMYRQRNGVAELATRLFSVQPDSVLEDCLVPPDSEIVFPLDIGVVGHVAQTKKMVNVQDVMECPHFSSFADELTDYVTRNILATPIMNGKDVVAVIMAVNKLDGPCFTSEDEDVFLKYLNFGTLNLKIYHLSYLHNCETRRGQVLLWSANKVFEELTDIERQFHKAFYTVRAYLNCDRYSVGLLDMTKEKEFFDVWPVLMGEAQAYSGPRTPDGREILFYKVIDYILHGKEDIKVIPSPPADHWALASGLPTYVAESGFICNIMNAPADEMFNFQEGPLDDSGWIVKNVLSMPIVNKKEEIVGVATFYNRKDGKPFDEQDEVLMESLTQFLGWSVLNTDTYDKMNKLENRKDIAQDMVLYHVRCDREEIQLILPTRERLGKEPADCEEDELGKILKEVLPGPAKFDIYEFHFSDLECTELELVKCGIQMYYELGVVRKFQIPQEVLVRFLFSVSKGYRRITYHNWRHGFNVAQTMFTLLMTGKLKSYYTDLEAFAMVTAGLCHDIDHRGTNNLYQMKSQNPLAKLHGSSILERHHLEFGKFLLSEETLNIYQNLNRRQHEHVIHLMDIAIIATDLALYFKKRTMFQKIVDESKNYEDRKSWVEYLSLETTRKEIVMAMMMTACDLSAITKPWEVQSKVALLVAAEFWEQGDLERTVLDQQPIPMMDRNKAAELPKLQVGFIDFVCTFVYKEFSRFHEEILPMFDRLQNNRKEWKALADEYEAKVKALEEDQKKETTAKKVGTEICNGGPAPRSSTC
# CaMK2α (h) = CaMK2α (h) (Homo sapiens, UniProt Q9UQM7); assay: enzyme assay; type: biochemical
# [1] = target: T13, phosphatase 1B (h) (PTP1B) (Homo sapiens, UniProt P18031); assay: enzyme assay; type: biochemical
# T13 construct: host or cells: E. coli
# T13 sequence (P18031 1-435): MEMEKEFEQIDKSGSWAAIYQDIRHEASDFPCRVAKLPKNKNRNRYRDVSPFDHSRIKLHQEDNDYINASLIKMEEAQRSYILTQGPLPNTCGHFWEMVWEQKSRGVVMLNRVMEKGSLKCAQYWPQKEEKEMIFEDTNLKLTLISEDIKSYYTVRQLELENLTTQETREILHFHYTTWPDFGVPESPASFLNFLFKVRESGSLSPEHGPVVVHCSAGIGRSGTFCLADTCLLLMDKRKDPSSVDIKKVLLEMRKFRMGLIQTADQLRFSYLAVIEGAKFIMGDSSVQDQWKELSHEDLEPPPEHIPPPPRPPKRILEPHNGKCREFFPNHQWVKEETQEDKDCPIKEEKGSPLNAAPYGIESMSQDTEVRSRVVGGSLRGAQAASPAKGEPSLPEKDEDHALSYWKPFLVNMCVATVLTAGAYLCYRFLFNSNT
# T1 sequence (P04177 whole entry): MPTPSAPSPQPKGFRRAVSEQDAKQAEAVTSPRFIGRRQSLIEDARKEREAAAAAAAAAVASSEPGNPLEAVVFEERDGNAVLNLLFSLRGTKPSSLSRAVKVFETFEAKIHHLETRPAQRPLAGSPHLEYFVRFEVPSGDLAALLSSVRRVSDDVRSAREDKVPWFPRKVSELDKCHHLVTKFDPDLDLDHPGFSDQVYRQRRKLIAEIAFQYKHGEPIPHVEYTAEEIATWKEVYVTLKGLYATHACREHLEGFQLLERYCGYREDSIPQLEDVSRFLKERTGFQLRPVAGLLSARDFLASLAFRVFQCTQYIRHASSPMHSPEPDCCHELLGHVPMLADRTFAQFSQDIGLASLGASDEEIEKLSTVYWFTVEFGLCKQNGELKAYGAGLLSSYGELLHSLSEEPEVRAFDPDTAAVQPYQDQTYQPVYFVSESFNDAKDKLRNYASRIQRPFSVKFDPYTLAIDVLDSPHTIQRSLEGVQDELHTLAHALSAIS
compound,measurement,setting,value
"N[C@@H](Cc1ccc(O)c(I)c1)C(=O)O [3-iodo L-tyrosine, reference compound]",pIC50,tyrosine hydroxylase,6.21
same,nH,tyrosine hydroxylase,1.0
"NOCC(=O)O [AoAA, reference compound]",pIC50,GABA transaminase,6.89
same,nH,GABA transaminase,1.7
"CNC(=O)[C@H]1O[C@@H](n2cnc3c(NCc4cccc(I)c4)ncnc32)[C@H](O)[C@@H]1O [IB-MECA, reference compound]",nH,A3 (h),0.8
"CCCCC/C=C\C[C@@H](O)/C=C/C=C/C=C\[C@@H](O)CCCC(=O)O [LTB4, reference compound]",nH,BLT1 (LTB4) (h),0.8
"CC(C)NCC(O)COc1ccc(CC(N)=O)cc1 (centres unmarked) [atenolol, reference compound]",nH,β1 (h),1.0
"CN/C(=N/CCSCc1nc[nH]c1C)NC#N [cimetidine, reference compound]",nH,H2 (h),0.9
"CNC[C@H](O)c1ccc(O)c(O)c1 [epinephrine, reference compound]",nH,α2C (h),1.1
"COc1ccc2[nH]cc(CCNC(C)=O)c2c1 [melatonin, reference compound]",pIC50,MT3 (ML2),7.42 and 6.59
same,pKi,MT3 (ML2),7.43 and 6.60
same,nH,MT1 (ML1A) (h),1.0
"C[C@@H]1CC2=CC(=O)CC[C@@H]2[C@H]2CC[C@@]3(C)[C@@H](CC[C@]3(C)O)[C@@H]21 [mibolerone, reference compound]",nH,AR (h),1.1 and 1.0
"COC(=O)[C@@H]1[C@H]2C[C@H]3c4[nH]c5ccccc5c4CCN3C[C@@H]2CC[C@@H]1O [yohimbine, reference compound]",nH,α2A (h),1.1
"CCCOc1ccccc1-c1nc2nn[nH]c2c(=O)[nH]1 [zaprinast, reference compound]",pIC50,PDE6 (non-selective),6.77
same,nH,PDE6 (non-selective),0.7
"KKALRRQEAVDAL [AIP, reference compound]",pIC50,CaMK2α (h),7.09
same,nH,CaMK2α (h),1.0
ammonium molybdate [reference compound],pIC50,[1],6.27
same,nH,[1],2.9
